This is an account of results in patent US6608086B2, “Dihydropyridines and new uses thereof” (Synaptic Pharmaceutical Corporation, priority 1993, dated 2003).

Where a name gives a salt, the structure may show the parent alone. Read-outs that look alike come from different tables or passages of the source.

The target of assay [1] is T1, α1B Human Adrenergic Receptor (Homo sapiens, UniProt P35368).
T1 construct: The entire coding region of α1B (1563 bp); expressed in transfected cells
T1 sequence (P35368 1-520): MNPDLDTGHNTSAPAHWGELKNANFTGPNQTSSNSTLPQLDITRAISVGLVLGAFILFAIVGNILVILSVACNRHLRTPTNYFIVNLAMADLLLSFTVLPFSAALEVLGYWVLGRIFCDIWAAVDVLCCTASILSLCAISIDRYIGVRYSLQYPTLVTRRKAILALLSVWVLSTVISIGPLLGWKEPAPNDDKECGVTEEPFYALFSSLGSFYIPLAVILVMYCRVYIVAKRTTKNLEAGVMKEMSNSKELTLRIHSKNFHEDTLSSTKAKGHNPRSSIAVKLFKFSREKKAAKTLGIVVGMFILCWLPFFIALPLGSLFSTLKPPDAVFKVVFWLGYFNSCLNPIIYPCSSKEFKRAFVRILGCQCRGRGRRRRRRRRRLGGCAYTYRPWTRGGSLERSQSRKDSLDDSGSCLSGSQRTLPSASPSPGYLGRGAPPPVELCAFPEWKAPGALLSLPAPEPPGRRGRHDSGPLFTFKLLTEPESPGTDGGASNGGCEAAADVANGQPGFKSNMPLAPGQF
Kind of assay: Radioligand binding, [3H]prazosin, cloned human α1B adrenergic receptor. In outline:
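[3H]prazosin (0.5 nM) binding was run for 20 min at 37° C in pH 7.5 Tris/MgCl2/ascorbate buffer on membranes of LM(tk−) cells stably expressing the cloned receptor. Filtration through GF/B ended the reaction; 10 μM phentolamine gave nonspecific binding.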

In assay [2] the target is T2, α1A Human Adrenergic Receptor (Homo sapiens, UniProt P25100).
T2 construct: The entire coding region of α1A (1719 bp); expressed in transfected cells
T2 sequence (P25100 1-572): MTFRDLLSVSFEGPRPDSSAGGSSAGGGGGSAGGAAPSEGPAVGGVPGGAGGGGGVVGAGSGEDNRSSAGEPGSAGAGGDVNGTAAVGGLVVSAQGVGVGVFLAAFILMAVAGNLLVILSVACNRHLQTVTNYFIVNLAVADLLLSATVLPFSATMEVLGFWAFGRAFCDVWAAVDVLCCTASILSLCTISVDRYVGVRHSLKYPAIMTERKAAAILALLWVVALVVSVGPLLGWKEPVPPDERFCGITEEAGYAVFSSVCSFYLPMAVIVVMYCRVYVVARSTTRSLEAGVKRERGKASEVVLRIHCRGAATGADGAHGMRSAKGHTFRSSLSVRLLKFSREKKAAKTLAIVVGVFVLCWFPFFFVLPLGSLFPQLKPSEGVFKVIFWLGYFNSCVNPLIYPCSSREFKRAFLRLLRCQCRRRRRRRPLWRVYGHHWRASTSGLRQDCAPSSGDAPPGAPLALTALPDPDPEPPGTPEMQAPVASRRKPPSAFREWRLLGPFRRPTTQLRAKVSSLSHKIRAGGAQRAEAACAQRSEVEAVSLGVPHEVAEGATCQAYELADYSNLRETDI
Kind of assay: Radioligand binding, [3H]prazosin, cloned human α1A adrenergic receptor. The note with it: [3H]prazosin. In outline: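 [3H]prazosin 0.5 nM, transfected LM(tk−) membranes, 37° C, 20 min. Buffer 50 mM Tris-HCl/1 mM MgCl2/0.1% ascorbate, pH 7.5. NSB: 10 μM phentolamine. Filtration harvest.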

For assay [3], the target named is T3, α2A receptor (Homo sapiens, UniProt P08913).
T3 construct: host or cells: LM(tk-) cells, line L-α2A
T3 sequence (P08913 1-465): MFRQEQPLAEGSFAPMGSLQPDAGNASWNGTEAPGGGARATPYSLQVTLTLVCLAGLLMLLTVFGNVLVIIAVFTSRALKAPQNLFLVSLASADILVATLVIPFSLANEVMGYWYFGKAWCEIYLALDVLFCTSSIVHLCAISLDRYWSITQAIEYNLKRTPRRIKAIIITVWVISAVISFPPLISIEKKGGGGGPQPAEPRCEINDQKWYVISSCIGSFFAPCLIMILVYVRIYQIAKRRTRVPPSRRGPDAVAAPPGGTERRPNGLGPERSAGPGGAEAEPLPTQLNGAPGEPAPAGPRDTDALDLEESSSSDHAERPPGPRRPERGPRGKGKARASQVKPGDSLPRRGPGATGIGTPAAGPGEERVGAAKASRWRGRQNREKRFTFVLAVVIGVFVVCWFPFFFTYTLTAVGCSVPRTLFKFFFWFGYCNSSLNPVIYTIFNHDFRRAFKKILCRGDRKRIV
Kind of assay: Competition binding, [3H]rauwolscine, human α2A receptor. The note with it: [3H]rauwolscine. Summed up:
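LM(tk−) lysates, stable α2A/α2B/α2C transfectants; 25 mM glycylglycine pH 7.6 (RT). [3H]rauwolscine 0.5 nM, equilibrium competition; NSB 10 μM phentolamine. GF/B filtration, cell harvester.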

The mark [4] stands for this setting: cloned human receptor in LM(tk-) cell membranes, SEM and n in lines below.
The mark [5] stands for this setting: cloned human α1B receptor, LM(tk−) cell membranes.
The mark [6] stands for this setting: cloned human α1A receptor, LM(tk−) cell membranes.
[7] abbreviates: human α2A receptor, LM(tk−) cells.
[8] abbreviates: cloned human α1B receptor, LM(tk−) cell membranes, read-out: pKi alpha-1 1b (converted).
[9] abbreviates: cloned human α1A receptor, LM(tk−) cell membranes, read-out: pKi alpha-1 1a (converted).
Where [10] appears, read: human α2A receptor, LM(tk−) cells, read-out: pKi alpha-2 2a (converted).
[11] abbreviates: human receptor, LM(tk-) cell lysates, mean, read-out: PKi alpha-2 2a (converted).

On to `COC(=O)C1=C(C)NC(c2ccccc2)=C(C(=O)NCCCN2CCC(c3ccccc3)CC2)C1c1ccc([N+](=O)[O-])cc1.Cl` (stereo not drawn) [Example 79, 1,4-Dihydro-5-methoxycarbonyl-6-methyl-4-(4-nitro)phenyl-2-phenyl-3-(N-(3-(4-phenylpiperidin-1-yl)propyl)) carboxamidopyridine hydrochloride], for which, in assay [1] (setting [4]), the “pKi alpha-1 1b” value came out at 7.33. The “pKi alpha-1 1a” value in assay [2] (setting [4]) is recorded as 6.99. Further, the “pKi alpha-2 2a” value in assay [3] (LM(tk-) cell line L-α2A, SEM and n in lines below) was 6.84.

For `CCOC(=O)C1=C(CNCCCN2CCC(c3ccccc3)(c3ccccc3)CC2)NC(C)=C(C(=O)OC)C1c1ccc([N+](=O)[O-])cc1.Cl.O` (stereo not drawn) [Example 90, 3-Ethoxycarbonyl-1,4-dihydro-5-methoxycarbonyl-6-methyl-4-(4-nitro)phenyl-2-(N-(3-(4,4,-diphenylpiperidin-1-yl)propyl)amino)methylpyridine, hydrochloride hydrate], in assay [1] (setting [5]), the “pKi alpha-1 1b” value turned out to be 6.87. Moreover, the “pKi alpha-1 1a” value in assay [2] (setting [6]) was found to be 6.52. In assay [3] (setting [7]), the “pKi alpha-2 2a” value is 6.13.

As for `COC(=O)C1=C(C)NC2=C(C(=O)N(CCCN3CCC(c4ccccc4)(c4ccccc4)CC3)C2)C1c1ccc([N+](=O)[O-])cc1.Cl.O` (stereo not drawn) [Example 91, 1,4,7,7-Tetrahydro-3-methoxycarbonyl-6-methyl-5-oxo-4-(4-nitrophenyl)-6-(3-(4,4-diphenylpiperidin-1-yl)) propylpyrrolo[3,4-b]pyridine, hydrochloride hydrate], the “pKi alpha-1 1b” value in assay [1] (setting [5]) amounted to 6.54. Further, the “pKi alpha-1 1a” value in assay [2] (setting [6]) was determined as 6.29. In addition, the “pKi alpha-2 2a” value in assay [3] (setting [7]) was 6.06.

As for `CCC1=C(C(N)=O)C(c2ccc([N+](=O)[O-])cc2)C(C(=O)NCCCN2CCC(O)(c3ccccc3)CC2)=CN1CC.Cl.O` (stereo not drawn) [Example 101, 5-Carboxamido-1,6-diethyl-1,4-dihydro-3-{N-[3-(4-hydroxy-4-phenylpiperidin-1-yl)propyl]}carboxamido-4-(4-nitrophenyl)pyridine hydrochloride hydrate], in assay [1] (setting [5]), the “pKi alpha-1 1b” value stood at 6.22. Also, the “pKi alpha-1 1a” value in assay [2] (setting [6]) stood at 5.86. The “pKi alpha-2 2a” value in assay [3] (setting [7]) is 5.89.

As to `CCC1=C(C(N)=O)C(c2ccc([N+](=O)[O-])cc2)C(C(=O)NCCCN2CCN(c3ccccc3)CC2)=C(CC)N1` (stereo not drawn) [Example 104, 5-Carboxamido-2,6-diethyl-1,4-dihydro-4-(4-nitrophenyl)-3-{N-[3-(4-phenylpiperazin-1-yl)propyl]}carboxamido-pyridine hydrochloride hydrate], the Ki was 34.7 nM in assay [1] (setting [8]), 132 nM in assay [2] (setting [9]) and 5.25 nM in assay [3] (setting [10]).

Regarding `CCC1=C(C(N)=O)C(c2ccc([N+](=O)[O-])cc2)C(C(=O)NCCCN2CCC(c3ccccc3)(c3ccccc3)CC2)=C(CC)N1` (stereo not drawn) [Example 120, 5-Carboxamido-2,6-diethyl-1,4-dihydro-4-(4-nitrophenyl)-3-{N-[3-(4,4-diphenylpiperidin-1-yl)propyl]} carboxamidopyridine], the “pKi alpha-1 1b” value in assay [1] (setting [5]) came out at 6.61. Further, the “pKi alpha-1 1a” value in assay [2] (setting [6]) turned out to be 6.33. Moreover, the Ki in assay [3] (setting [10]) is 363 nM.

Take `CCC1=C(C(N)=O)C(c2ccc([N+](=O)[O-])cc2)C(C(=O)NCCCN2CCC(c3ccccc3)CC2)=C(CC)N1` (stereo not drawn) [Example 121, 5-Carboxamido-2,6-diethyl-1,4-dihydro-4-(4-nitrophenyl)-3-{N-[3-(4-phenylpiperidin-1-yl)propyl]}carboxamidopyridine]: the figures for the Ki in assay [1] (setting [8]), in assay [2] (setting [9]) and in assay [3] (setting [10]) were 72.4 nM, 240 nM and 363 nM, respectively.

Take `CCC1=C(C(N)=O)C(c2ccc([N+](=O)[O-])cc2)C(C(=O)NC2CCN(CCc3c[nH]c4ccccc34)CC2)=CN1CC` (stereo not drawn) [Example 122, 5-Carboxamido-1,4-dihydro-3-(N-{1-[2-(3-indolyl)ethyl]piperidin-4-yl}) carboxamido-1,6-diethyl-4-(4-nitrophenyl)pyridine]: the “pKi alpha-1 1b” value in assay [1] (setting [5]) is on record as 7.57. Moreover, in assay [2] (setting [6]), the “pKi alpha-1 1a” value is 6.62. Further, in assay [3] (setting [7]), the “pKi alpha-2 2a” value is recorded as 6.38.

As for `CCC1=C(C(N)=O)C(c2ccc([N+](=O)[O-])cc2)C(C(=O)NC2CCN(CCc3c[nH]c4ccccc34)CC2)=CN1CC` (stereo not drawn) [Example 123, 5-Carboxamido-1,6-diethyl-1,4-dihydro-3-(N-{1-[2-(3-indolyl)ethyl]piperidin-4-yl}) carboxamide-4-(4-nitrophenyl)pyridine], the “pKi alpha-1 1b” value in assay [1] (setting [5]) is reported as 8.01. In addition, the “pKi alpha-1 1a” value in assay [2] (setting [6]) was 6.7. Also, the “pKi alpha-2 2a” value in assay [3] (setting [7]) is recorded as 6.03.

For the compound `COc1ccccc1N1CCN(CCCNC(=O)C2=C(C)NC(C)=C(C(N)=O)C2c2ccc([N+](=O)[O-])cc2)CC1` (stereo not drawn) [Example 124], the Ki in assay [1] (setting [8]) is 89.1 nM; in assay [2] (setting [9]), 57.5 nM; in assay [3] (setting [10]), 22.4 nM.

For `CCC1=C(C(=O)NC)C(c2ccc([N+](=O)[O-])cc2)C(C(=O)NCCCN2CCC(C#N)(c3ccccc3)CC2)=C(CC)N1` (stereo not drawn) [Example 126, 3-{N-[3-(4-Cyano-4-phenylpiperidin-1-yl)propyl]}carboxamido-1,4-dihydro-2,6-diethyl-5-(1-methyl)carboxamido-4-(4-nitrophenyl)pyridine], in assay [1] (setting [5]), the “pKi alpha-1 1b” value came out at 5.37. For the same compound, in assay [2] (setting [6]), the “pKi alpha-1 1a” value was found to be 5.15. In addition, the “pKi alpha-2 2a” value in assay [3] (setting [7]) is recorded as 5.33.

As to `CNC(=O)C1=C(C)NC(C)=C(C(=O)NCCCN2CCC(c3ccccc3)(c3ccccc3)CC2)C1c1ccc2c(c1)OCCO2` (stereo not drawn) [Example 163], the Ki in assay [1] (PKi alpha-1 1b, cloned human receptor, LM(tk-) cell membranes, mean) was 1020 nM; in assay [2] (PKi alpha-1 1a, cloned human receptor, LM(tk-) cell membranes, mean), 776 nM; in assay [3] (setting [11]), 1170 nM.

Regarding `CCC1=C(C(N)=O)C(c2ccc([N+](=O)[O-])cc2)C(C(=O)NCCCN2CCC(C(=O)OC)(c3ccccc3)CC2)=C(CCCCN=[N+]=[N-])N1` (stereo not drawn) [Example 165, 2-(4-Azidobutyl)-3-{N-[3-(4-methoxycarbonyl-4-phenylpiperidin-1-yl)propyl]}carboxamido-5-carboxamido-6-ethyl-1,4-dihydro-4-(4-nitrophenyl)pyridine], the Ki was 575 nM in assay [1] (cloned human receptor, LM(tk-) cell membranes, mean, read-out: PKi alpha-1 1b (converted)); 1410 nM in assay [2] (cloned human receptor, LM(tk-) cell membranes, mean, read-out: PKi alpha-1 1a (converted)); 3020 nM in assay [3] (setting [11]).
